Assay results published in patent EP0047496A1, “Sulfonyl ureas, processes for their production, pharmaceutical compositions based on these compounds and their use” (HOECHST AKTIENGESELLSCHAFT, priority 1980, dated 1982).

These compounds were tested on Kaninchen (assay: Blood sugar lowering after oral administration to rabbits (autoanalyzer)). Conditions: 0,4 mg/kg oral, nach 6 Stunden.
Assay type: in vivo
Protocol: Die blutzuckersenkende Wirkung der erfindungsgemäßen Benzolsulfonylharnstoffe kann dadurch festgestellt werden, daß man sie als freie Verbindungen oder in Form der Natriumsalze an normal ernährte Kaninchen verfüttert und den Blutzuckerwert nach der bekannten Methode von Hagedorn-Jensen oder mit einem Autoanalyzer über eine längere Zeitdauer ermittelt.
Die routinemäßige Bestimmung der blutzuckersenkenden Wirkung kann mit Dosierungen von z.B. 10,2 oder 0,4 mg oder mit noch geringeren Mengen Wirksubstanz pro kg Versuchstier nach bekannten Methoden erfolgen.
Die folgenden Verbindungen I bis V wurden in Dosierungen von 2 mg/kg Kaninchen oral verabreicht und die Blutzuckerwerte wurden mit einem Autoanalyzer über eine Zeitdauer von 24 Stunden ermittelt. Die hierbei gemessene Blutzuckersenkung ist in der nachfolgenden Tabelle in % nach ... Stunden angegeben. • I N-(4-<2-(N'-<5-Chlor-2-methoxy-benzoyl>-ureido)-äthyl>- benzolsulfonyl)-N'-cyclohexyl-harnstoff • II N-(4-<2-(N'-<5-Chlor-2-methoxy-benzoyl>-ureido)-äthyl>- benzolsulfonyl)-N'-butyl-harnsotff • III N-(4-<2-(N'-<5-Chlor-2-methoxy-benzoyl>-ureido)-äthyl>- benzolsulfonyl)-N'-cyclopentyl-harnstoff • IV N-(4-<2-(N'-<2-Methoxy-5-methyl-benzoyl)-ureido)-äthyl>- benzolsulfonyl)-N'-cyclohexyl-harnstoff • V N-(4-<2-(N'-<2-Methoxy-5-methyl-benzoyl>-ureido)-äthyl>- benzolsulfonyl)-N'-(4-methyl-cyclohexyl)-harnstoff [formula]
Die Verbindungen I, IV und V wurden in Dosierungen von 0,4 mg/kg oral an Kaninchen verabreicht und die Blutzuckersenkung gemessen. Sie betrug nach 6 Stunden 40 % (Verbindung I), 41 % (Verbindung IV) und 33 % (Verbindung V).

Structure (SMILES)	Blutzuckersenkung [%]
COc1ccc(Cl)cc1C(=O)NC(=O)NCCc1ccc(S(=O)(=O)NC(=O)NC2CCCCC2)cc1 [Verbindung I, N-(4-<2-(N'-<5-Chlor-2-methoxy-benzoyl>-ureido)-äthyl>- benzolsulfonyl)-N'-cyclohexyl-harnstoff]	40
COc1ccc(C)cc1C(=O)NC(=O)NCCc1ccc(S(=O)(=O)NC(=O)NC2CCCCC2)cc1 [Verbindung IV]	41
COc1ccc(C)cc1C(=O)NC(=O)NCCc1ccc(S(=O)(=O)NC(=O)NC2CCC(C)CC2)cc1 (stereo not drawn) [Verbindung V, N-(4-<2-(N'-<2-Methoxy-5-methyl-benzoyl>-ureido)-äthyl>- benzolsulfonyl)-N'-(4-methyl-cyclohexyl)-harnstoff]	33
